The record followed here is patent publication US5843481A, “Treatment of proliferative disorders, metastasaes, and drug resistant tumors with vanadate compounds and derivatives or analogues thereof” (priority 1994, dated 1998).

The test system of one series is fos. In words: Northern blot analysis of fos mRNA expression in chondrocytes. It counts as cell-based, bovine. The method, then: The cytokine interleukin 1 (IL 1) has been used to identify the intermediate second messengers which regulate the expression of fos and jun.
In order to elucidate this possibility, the effect of DPI on fos and jun mRNA levels induced by IL 1 was investigated. RNA from chondrocytes treated with IL 1 in the presence and absence of DPI were analyzed by Northern blot analysis using either fos or collagenase cDNA probes.
Since superoxides are rapidly converted to hydrogen peroxide in the cell by superoxide dismutase, whether hydrogen peroxide could mimic the effect of IL 1 in the induction of fos expression was investigated. RNA was extracted from chondrocytes (Kandel et al. supra) treated with H2 O2 for 30, 60 and 90 minutes and examined by Northern blot analysis using a fos cDNA probe.
(§1) Bovine articular chondrocytes were isolated and plated as previously described (Kandel R. A. et al. Biochim. Biophys. Acta. 1053, 130-134, 1990). In order to determine the effect of orthovanadate on IL 1 and PMA (phorbol ester) induced responses, chondrocytes were incubated with orthovanadate (100 μM) for 2 hours before stimulation with IL 1 (10 ng/ml) or PMA ([…]). collagenase production was determined by incubating chondrocytes for 24 hours with IL 1 or PMA and the cell conditioned medium was assayed for collagenase activity using an ELISA procedure as described previously (Kandel et al. supra) PLA2 activity was measured by incorporating ^3 H-arachidonic acid (^3 H-AA) into the cells and then incubating the cells with medium containing 1 mg/ml BSA, either alone or in the presence of IL 1 or PMA, for 10 min. as previously described (Conquer, J. A. […], Biochim. Biophys. Acta. 1134, 1-6). The amount of ^3 H-AA liberated into the supernatant was determined. To measure PGE2 production, chondrocytes were incubated for 6 hours in Ham's F12 medium, either alone or with IL 1 or PMA. The supernatant was analyzed by RIA using an antibody specific for PGE2 (Dr. S. A. Jones, Mount Sinai Hospital, Toronto, Can.). In order to examine the expression of c-fos and c-jun, chondrocytes were incubated for 1 hour in the presence of IL-1, PMA or AA (3 μM). Chondrocytes were washed in PBS and the total RNA extracted as previously described (Cruz. et al, 1991, Biochem. J. 277, 327-330). RNA samples were run on formaldehyde agarose gels and transferred to nylon membrane for northern analysis using cDNA probes for c-fos and c-jun.
Cells were also incubated as described above with 20 mM N-acetylcyateine for 20 min. and then incubated with IL 1 for an additional 1 or 12 hours. The RNA was extracted and examined by Northern blot analysis using cDNA probes for c-fos and collagenase.

A further series concerns collagenase. As to the kind of experiment: Collagenase production by chondrocytes (ELISA of conditioned medium). It counts as cell-based, bovine. Conditions: orthovanadate 100 uM, 2 hours before stimulation. The method, then:
as §1, with “Chondrocytes were washed in PBS and the total RNA extracted as previously described (Cruz. et al, 1991, Biochem. J. 277, 327-330). RNA samples were run on formaldehyde agarose gels and transferred to nylon membrane for northern analysis using cDNA probes for c-fos and c-jun.” left out
(In general: ELISA stands for enzyme-linked immunosorbent assay.)

The next series concerns PLA2. As to the kind of experiment: 3H-arachidonic acid release by chondrocytes (PLA2 activity). Type of series: cell-based, bovine. The conditions noted are these: orthovanadate 100 uM. The method, then:
as §1, with “Chondrocytes were washed in PBS and the total RNA extracted as previously described (Cruz. et al, 1991, Biochem. J. 277, 327-330). RNA samples were run on formaldehyde agarose gels and transferred to nylon membrane for northern analysis using cDNA probes for c-fos and c-jun.” left out

The subject of series [1] is proliferating chondrocytes. In words: Viability of proliferating chondrocytes (low cell density). The conditions noted are these: 0-50 μM, 48 hours; FIG. 6. Type of series: cell-based, bovine. The method, then:
As described in example 1, orthovanadate inhibited fos, jun and collagenase expression. If fos and jun expression are required for cellular proliferation, then orthovanadate should inhibit chondrocyte proliferation. In order to compare the effect of orthovanadate on non-proliferating and proliferating chondrocytes, chondrocytes were plated at both high cell density (2×10^6 to 4×10^6 cells/per well on a six well plate) (nonproliferating) and at a lower cell density (5×10^5 to 1×10^6 cells/per well on a six well plate) (proliferating) and then maintained for 48 hours. The cells were then incubated in media (HAMS F12) containing 0-50 μM Orthovanadate for an additional 48 hours. The cells were harvested and the number of viable cells determined.

The next series concerns MDAY-D2 and HTB14 cells. As to the kind of experiment: Viability of proliferating tumor cell lines. Type of series: cell-based, mouse (MDAY-D2); human (HTB14). The method, then: Fos and jun activity are also required for cellular proliferation in many tumor cell lines. Accordingly, the effect of orthovanadate on adherent cells and cell suspensions were examined. MDAY-D2 (a mouse lymphoid cell line grown in suspension) and HTB14 cells (an adherent human primary astrocytoma cell line) were incubated in media containing 0-50 μM orthovanadate for 48 hours. The cells were harvested and the number of viable cells determined.

The next series deals with MDAY-D2. As to the kind of experiment: MDAY-D2 tumor growth in mice, combination therapy, Example 7. It counts as in vivo. The method, then: Twenty mice were injected subcutaneously with 2×10^5 cells on Day 1. At day 4, the mice were divided into four groups of five mice. Group one (control) received subcutaneous injections of 50 μl of water. Group two received daily intraperitoneal injections of 50 μl of 250 mM N-acetylcysteine. Group three received daily subcutaneous injections of 50 μl of 10 mg/ml of orthovanadate. Group four received daily intraperitoneal injections of 50 μl of […] N-acetylcysteine and 20 minutes later received 50 μl of subcutaneous injection of 50 μl of 10 mg/ml of orthovanadate. On day 10 the treatment was stopped. The animals were sacrificed on Day 13 and analyzed for tumor growth.

Series [2] can be described thus: Tolerability/toxicity of orthovanadate in mice, Example 9. Type of series: in vivo. The source says:
However, subcutaneous injections of up to 500 μgms orthovanadate is tolerated by the animals. Slow administration of the orthovanadate would decrease toxicity and the animals may tolerate higher doses.

Another series concerns superoxides and H2O2. As to the kind of experiment: Levels of superoxides and H2O2 in cells (conclusion of Example 1). Type of series: cell-based, bovine. Conditions: conclusion from results. The method, then: as §1, with “Chondrocytes were washed in PBS and the total RNA extracted as previously described (Cruz. et al, 1991, Biochem. J. 277, 327-330). RNA samples were run on formaldehyde agarose gels and transferred to nylon membrane for northern analysis using cDNA probes for c-fos and c-jun.” left out

Structures are written as SMILES.

Regarding `[O]=[V]([O-])([O-])[O-]` [orthovanadate], the “IL 1, PMA and AA induced c-fos expression” value in the series on fos (orthovanadate 100 μM, FIGS. 4 and 18) is “completely inhibited”. Moreover, the “fos expression in response to factors such as IL 1 or arachidonic acid” value with fos (summary statement) is “completely inhibit”. Also, the “collagenase production (IL 1 or PMA)” value in the series with collagenase is “completely inhibited”. The “IL 1 or PMA induced release of 3H-AA” value in the series on PLA2 is given as “did not inhibit”. In series [1], the “toxicity to cells plated at low cell density (proliferating)” value is given as “toxic”. Moreover, the “time by which cell death was observed” value in the series with MDAY-D2 and HTB14 cells was no more than 24 h. Besides, the “cell death, concentration dependence” value in the series with MDAY-D2 and HTB14 cells (0-50 μM, 48 hours, FIG. 7) was “concentration dependent increase in cell death”. Also, in the series on MDAY-D2 and HTB14 cells (within 3 days of continuous treatment), the cell death completeness result is recorded as “over 98%”. For the same molecule, the “animals that died during the experiment” value with MDAY-D2 (10 mg/ml s.c. daily, group of five mice) was “One orthovanadate treated animal died”. Besides, the “animals without detectable tumors” value in the series with MDAY-D2 (day 13, FIG. 14, orthovanadate: of four mice, combination: of five) is recorded as “two had no detectable tumors”. In addition, the intraperitoneal toxicity entry in series [2] (intraperitoneal, high doses) was “toxic”. In addition, in series [2] (oral, 0.5 mg/ml, laboratory mice), the oral toxicity result is given as “gastric toxicity”. Moreover, in series [2] (subcutaneous injections), the “tolerated dose, subcutaneous” value is “up to 500 μgms”. The “levels of superoxides and H2O2 in cells” value in the series on superoxides and H2O2 is on record as “indirectly reduce”.
